Results taken from patent publication USRE47193E1, “Selectively substituted quinoline compounds” (EISAI R&D MANAGEMENT CO., LTD., priority 2013, dated 2019).
Entries after “also recorded” stand apart in the source; their conditions may differ.

Tested on: Pristane DBA/1 lupus disease model
Test: Pristane: DBA/1 lupus disease model
Type: in vivo, mouse
Conditions: for auto-antibody specificities (titers): Pristane model, particularly robust impact on anti-RiboP titers
Procedure: FIG. 3A through FIG. 3E show results of testing compound ER-899742 in the Pristane: DBA/1 strain lupus disease model. Figure Legend: Female DBA/1 mice at 9 weeks of age were given an intraperitoneal injection of 0.5 ml pristane or PBS. At 9 weeks post-pristane animals were bled for auto-antibody titers. Once-a-day oral dosing with Vehicle (Veh; 0.5% methyl-cellulose) or 33 mg/kg, 100 mg/kg, or 300 mg/kg of ER-899742 was begun 10 weeks after pristane injection and continued for 13 weeks of treatment. Mice were euthanized after 13 weeks of compound treatment, and anti-dsDNA (FIG. 3A), anti-Sm/nRNP (FIG. 3B), anti-histone (FIG. 3C) and anti-RiboP (FIG. 3D) titers were measured in blood plasma samples by ELISA (statistical significance of treatment versus vehicle determined by ANOVA with Dunnett's post-test). (FIG. 3E) The expression of IFN-regulated genes in whole blood was measured by a qPCR panel after 13 weeks of treatment with 300 mg/kg of ER-899742, and an IFN gene signature score was calculated (see Pharmacology Materials and Methods section for details regarding IFN score calculation).
FIG. 5A through FIG. 5D show results of testing ER-899464 in the Pristane disease model in the same experiment as that shown in FIG. 3A through FIG. 3E. Figure Legend: Mice were euthanized after 13 weeks of compound treatment, and anti-dsDNA (FIG. 5A), anti-Sm/nRNP (FIG. 5B), anti-histone (FIG. 5C), and anti-RiboP (FIG. 5D) titers were measured in blood plasma samples by ELISA (statistical significance of treatment versus vehicle determined by ANOVA with Dunnett's post-test).
FIG. 7A through FIG. 7G show the effect of dosing with ER-899742 in Pristane-induced disease in DBA/1J mice. Figure Legend: Female DBA/1 mice at 9 weeks of age were given an intraperitoneal injection of 0.5 ml pristane or PBS. At 10 weeks post-pristane animals were bled for autoantibody titers. Once-a-day oral dosing with Vehicle (Veh; 0.5% methyl-cellulose) or 33 mg/kg, or 300 mg/kg of ER-899742 was begun 11 weeks after pristane injection and continued for 14 weeks of treatment. Mice were euthanized after 14 weeks of compound treatment, and anti-dsDNA (FIG. 7A), anti-RiboP (FIG. 7B), anti-Sm/nRNP (FIG. 7C), and anti-histone (FIG. 7D) titers were measured in blood plasma samples by ELISA (statistical significance of treatment versus vehicle determined by ANOVA with Dunnett's post-test). The same plasma was used to measure total IgG titers by ELISA at the end of dosing (FIG. 7E). […] Pristane-treated mice in this experiment developed arthritis, with swollen joints in the rear paws. Arthritis scores were assigned according to severity, each paw was scored on a scale of 0-4 based on signs of swelling and inflammation. Scores were summed for the two hind paws assessed on each animal, and graphed in FIG. 7F with statistical assessment as for ELISA titers above.
FIG. 8 contains the result of treating for a month with ER-899742 in Pristane-induced disease in DBA/1J mice with advanced disease, after development of high levels of autoantibody. Figure Legend: DBA/1J mice were injected i.p. with pristane at 10 weeks of age. Three months later anti-RiboP and anti-dsDNA titers were taken, and animals randomized into groups with matching mean titers. Groups were sacrificed after one, two or four weeks of oral dosing with ER-899742, and RiboP titers measured in serum.
Mouse Lupus Disease Models.
Mouse lupus disease model strains. Female NZBWF1/J mice were purchased from Jackson Labs (Bar Harbor, Me.), both of which manifest with spontaneous lupus disease. Female DBA/1 mice were purchased from Harlan Laboratories (Indianapolis, Ind.) and at the indicated ages given an intraperitoneal injection of 0.5 ml pristane (2,6,10,14-Tetramethylpentadecane; Sigma, St. Louis, Mo.) to chemically induce lupus disease or of 0.5 ml PBS to generate age-matched, non-diseased control mice.
Assessment of auto-antibody titers by ELISA. […]

[1] = 33 or 300 mg/kg QD oral, 14 weeks of treatment

SMILES | auto-antibody specificities (titers) | autoantibody against dsDNA and RiboP [1] | total IgG titers [1] | arthritis scores (hind paws) (Pristane-treated DBA/1 mice, 33 or 300 mg/kg, 14 weeks, hydrochloride) | reversal of anti-RiboP or DNA titers (advanced disease, after 28 days of oral dosing)
C[C@@H]1CN(c2ccc(C#N)c3ncccc23)C[C@H](C(=O)NC2CCN(C)CC2)O1 [ER-899464, (2R,6R)-4-(8-cyanoquinolin-5-yl)-6-methyl-N-(1-methylpiperidin-4-yl)morpholine-2-carboxamide] | suppressed various auto-antibody specificities |  |  |  | 
C[C@@H]1CN(c2ccc(C#N)c3ncccc23)C[C@H](C(=O)N[C@H]2CNC[C@H]2F)O1.Cl [ER-899742, (2R,6R)-4-(8-cyanoquinolin-5-yl)-N-[(3S,4R)-4-fluoropyrrolidin-3-yl]-6-methylmorpholine-2-carboxamide hydrochloride] | suppressed various auto-antibody specificities | Control of autoantibody against dsDNA and RiboP was seen | minimal changes in overall IgG level | Dose-dependent statistically significant suppression was observed; also recorded: Control of arthritis | no statistically significant reversal
